Test results: paper PMC4860947 (Nature, 2016)

How the values were obtained:
C. glabrata [1] = test: Mouse disseminated fungal burden model; assay type: in vivo, Candida glabrata; conditions: mice, CgPDR1 wild-type strain; 25 mg/kg fluconazole (low FLU) alone
[2] = system: C. glabrata PDR1 wild-type or PDR1^L280F strains; design: species or system Candida glabrata; conditions: in vivo
C. glabrata [3] = assay type: in vivo, Candida glabrata; conditions: mice; fluconazole 100 mg/kg/day, 7 days
[4] = system: C. glabrata adherence to CHO-Lec2 cells; test: Yeast adherence to CHO-Lec2 epithelial cells; assay type: cell-based, Candida glabrata; conditions: ketoconazole 40 µM alone, last 15 minutes
[5] = system: C. glabrata strains with wild-type or gain-of-function CgPDR1; assay type: cell-based, Candida glabrata; conditions: azole alone

Row | SMILES | tissue fungal burden (C. glabrata [1]) | survival of G. mellonella larvae [2] | survival of G. mellonella larvae compared to vehicle [2] | fungal burden in the bladder and kidney (C. glabrata [3]) | relative adherence of PDR1^L280F mutant to epithelial (CHO-Lec2) cells [4] | sensitivity of CgPDR1 wild-type strain to azole on plates [5]
1 | OC(Cn1cncn1)(Cn1cncn1)c1ccc(F)cc1F [fluconazole] | poorly reduced tissue burden | sensitive to fluconazole alone | did not significantly increase survival | significantly reduces fungal burden |  | 
2 | CC(=O)N1CCN(c2ccc(OCC3COC(Cn4ccnc4)(c4ccc(Cl)cc4Cl)O3)cc2)CC1 (stereo not drawn) [ketoconazole] |  |  |  |  | reduced relative adherence to levels comparable to a PDR1 wild-type strain | sensitive
